Active and inactive are the calls of the source. No cut-off for these calls is given here.
Columns and labels:
P388 = assay: Cytotoxicity against mouse P388 cells; type: functional, cell-based
KB = assay: Cytotoxicity against human KB cells; type: functional, cell-based

COC(=O)C[C@@H]1C(=O)C[C@H]2[C@H]([C@H]1C)[C@@H](O)[C@@H](OC(=O)/C=C/c1ccccc1)[C@@]1(O)C(C)(C)CCC[C@]21C
Activity (P388): inactive | Activity (KB): inactive
